Patent US12357552B2, “Hydroxyquinoline compounds and methods of use as pigment modifying agents” (priority 2021, dated 2025)
Like-named read-outs stand apart in the source and are kept apart here. Blank lines part the entries; values can stand above or below the compound they belong to.

What was measured:
MNT-1 cells [1] = assay: viability assay in MNT-1 cell line; assay type: cell-based, human
Description: Where Acmpd is the absorbance value for the test compound, and Ap and An are the absorbance values of the positive and negative controls, respectively. FIG. 6 depicts the reduction in melanin biosynthesis in MNT-1 cells by chloroxine, relative to the positive control phenylthiourea (PTU), a tyrosinase inhibitor commonly used as a melanin synthesis blocker. Other hydroxyquinoline drugs caused different effects in the MNT-1 cell line. At higher concentrations, the iodo-substituted compounds clioquinol (3) and iodoquinol (4) were toxic, with decreased cell counts in the viability assay.

mushroom tyrosinase [2] = target: mushroom tyrosinase (Agaricus bisporus, UniProt C7FF04); assay: fluorescence-based tyrosinase assay with substrate PAP-AMC (monophenolase activity)
Method: Enzyme activity was measured using the fluorescent substrate PAP-AMC. […] Fluorescence spectroscopy was carried out on a Carey Eclipse spectrophotometer. Fluorescence intensity was measured at 6-second intervals in quartz cuvettes kept at 37° C. […] In vitro fluorescence assays using mushroom tyrosinase (Worthington Biochemicals) were performed in 50 mM sodium phosphate buffer, pH 7.4 with the fluorescent tyrosinase substrate, PAP-AMC (Biovision). Varying concentrations of inhibitors were used as indicated. Data represent the mean±SD of three independent experiments.
After 5 minute incubation, inhibitor was added as a solution in DMSO. After an additional 2 minute incubation, a DMSO solution of PAP-AMC (0.02 mL of 1 mM solution) was added and, after thoroughly mixing, the reaction was monitored by fluorescence (λ excitation=350 nm; λ emission=440 nm). Initial rates were calculated using the slope of the curve for the first ca. 10% of the reaction. The first 1 min of the reaction were not used owing to the usual induction period observed with tyrosinase. Inhibition assays were performed in triplicate trials. Non-linear regression and curve fitting were done using Prism software (Graphpad Inc). […] The experiment was performed in triplicate at pH 7.4 and data were plotted according to Lineweaver-Burk. Data represent the mean±SD of three independent experiments.

[3] = solubility in aqueous solution under the tyrosinase assay conditions; conditions: higher concentrations
MNT-1 cells [4] = assay: inhibition of melanin production in human melanoma MNT-1 cells; assay type: cell-based; conditions: 3 days
Method: To assess melanogenesis inhibition within cells, the human melanoma MNT-1 cell line (CRL-3450 from ATCC), cultured and divided according to the recommended protocol, was subjected to varying concentrations of chloroxine (2) and the other hydroxyquinoline drugs. The MNT-1 cell line was chosen because it was previously used successfully for quantifying melanin synthesis (Hah et al., 2012). Frozen stocks (3.8×10^6 cells) of cells were thawed in a 37° C. water bath, then plated into three 10-cm plates containing 10 mL of MDEM+10% fetal bovine serum and 100 μL of 100× Penicillin/Streptomycin. When the cells became confluent, medium was aspirated, cells were rinsed with sterile phosphate-buffered saline (PBS), and then treated with 1 mL of 0.25% trypsin with 0.02% EDTA at 37° C. for 3 min. When the cells became loose, 4 mL of medium was added to neutralize the trypsin. FIG. 5 depicts the inhibition of melanin production in MNT-1 cells by chloroxine, an inhibitor of tyrosinase, at concentrations indicated. Cells were incubated with chloroxine for 3 days and then harvested, with melanin quantified after cell lysis, measuring absorbance at 405 nm. […]
Where Acmpd is the absorbance value for the test compound, and Ap and An are the absorbance values of the positive and negative controls, respectively. […]

tyrosinase = conditions: cited from earlier work
mushroom tyrosinase [5] = assay: assessment of reversibility: residual tyrosinase activity after ultrafiltration, with or without exogenous copper sulfate; assay type: biochemical; conditions: 5 μM inhibitor
Method: To gain further insight into the mode of action of the hydroxyquinoline drugs, residual enzyme activity was assessed after separation of the drug from the enzyme. This is generally done to assess whether the inhibitor acts in a reversible or irreversible manner. After incubation and measurement of tyrosinase activity, the drug nitroxoline (1) was separated from the reaction mixture in a Centricon centrifugal filter device, and enzymatic activity remeasured with fresh PAPAMC substrate.
When residual activity was measured after ultracentrifugation, less than 10% of the original activity remained (FIG. 4(b)). […]
To assess reversibility of enzyme inhibition, a reaction mixture containing 5 μM inhibitor was placed into Amicon Ultra centrifugal filters (10 K MWCO), concentrated at 4000 rpm for 10 minutes, followed by dilution with sodium phosphate buffer for a total of three cycles. If reconstitution of enzyme activity was being evaluated, exogenous copper sulfate was added to the remaining solution to a final concentration of 0.1 mM. Then fresh L-DOPA and PAP-AMC substrate was added and fluorescence change measured as previously described. […]

mushroom tyrosinase (Agaricus bisporus, UniProt C7FF04), sequence (C7FF04 1-392): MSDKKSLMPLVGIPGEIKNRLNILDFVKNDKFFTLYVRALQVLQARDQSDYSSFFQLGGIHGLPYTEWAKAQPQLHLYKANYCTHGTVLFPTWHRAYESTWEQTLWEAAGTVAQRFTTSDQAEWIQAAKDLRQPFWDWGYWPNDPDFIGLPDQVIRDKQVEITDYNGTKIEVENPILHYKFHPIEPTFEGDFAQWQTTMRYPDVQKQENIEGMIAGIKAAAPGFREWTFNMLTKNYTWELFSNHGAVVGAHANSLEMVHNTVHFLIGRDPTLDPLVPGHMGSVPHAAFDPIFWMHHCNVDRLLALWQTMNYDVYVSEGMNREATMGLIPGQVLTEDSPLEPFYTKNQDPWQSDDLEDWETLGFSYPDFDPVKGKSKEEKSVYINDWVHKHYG

Compound: Oc1c(Cl)cc(Cl)c2cccnc12 [chloroxine]
toxicity (cell counts in the viability assay) (MNT-1 cells [1]): not toxic
Ki (mushroom tyrosinase [2]): ~12 µM
solubility in aqueous solution [3]: did not show evidence of insolubility
ability to block melanin production (MNT-1 cells [4]): dose-dependent
IC50 (MNT-1 cells [4]; Homo sapiens, 72 h, absorbance at 405 nm, read-out: IC50 value for blocking melanin synthesis): ~1.5 µM

Ki (mushroom tyrosinase [2]): 367 µM
Compound: Oc1c(I)cc(Cl)c2cccnc12 [clioquinol]
toxicity (cell counts in the viability assay) (MNT-1 cells [1]): toxic

Compound: O=c1cc(CO)occ1O [kojic acid]
inhibition of tyrosinase (tyrosinase): high micromolar

Compound: O=[N+]([O-])c1ccc(O)c2ncccc12 [nitroxoline]
toxicity (cell counts in the viability assay) (MNT-1 cells [1]): not toxic
Ki (mushroom tyrosinase [2]): 0.9 µM
type of enzyme inhibition (Lineweaver-Burk) (mushroom tyrosinase [2]; varying substrate and inhibitor concentrations, pH 7.4): competitive inhibitor
enzyme activity after incubation of the concentrate with exogenous copper sulfate (mushroom tyrosinase [5]; after ultrafiltration, 0.1 mM copper sulfate): substantial recovery of original enzyme activity
residual activity after ultracentrifugation, of the original activity (mushroom tyrosinase [5]; no exogenous copper sulfate): less than 10%

Compound: iodoquinol
toxicity (cell counts in the viability assay) (MNT-1 cells [1]; MNT-1 cells, higher concentrations): toxic
inhibitory constant (in words) (mushroom tyrosinase [2]; monophenolase activity of tyrosinase): high micromolar
Ki (mushroom tyrosinase [2]; mushroom tyrosinase, PAP-AMC substrate, pH 7.4): 1290 µM
solubility in aqueous solution [3]: less soluble in aqueous solution
